# Reference: PMC7059204, “Gonadotropin-Releasing Hormone Receptor-Targeted Near-Infrared Fluorescence Probe for Specific Recognition and Localization of Peritoneal Metastases of Ovarian Cancer” (Frontiers in Oncology, 2020)
# Experiments:
# [1] = tested on: A2780 peritoneal metastases of ovarian cancer; format: in vivo, Balb/c nude mice
# Source text: The xenograft model for metastatic ovarian cancer was previously described ([18]). Female Balb/c nude mice (5–6 weeks old) were intraperitoneally injected with 1 × 10^7 A2780 cells. Tumors were allowed to grow for 2–3 weeks. The Institutional Animal Care and Use Committee of Fudan University approved all protocols presented in these studies.
# For ex vivo GnRHa-ICG and ICG (0, 1, 10, and 20 μmol/L) imaging, fluorescence signals were taken using the IVIS Lumina K imaging system (PerkinElmer) and the clinically used Fluorescence Navigation system (the FloNavi, Optomedic Technique Inc., Guangdong, China). For intraperitoneal metastasis imaging, 0.72 μmol/kg of GnRHa-ICG or ICG was injected intraperitoneally in mice. Mice were sacrificed at the indicated times (n = 3 per group), and the abdominal cavities were exposed. Fluorescence images were obtained using the IVIS Lumina K imaging system (PerkinElmer) with a 780 nm excitation filter and an 845 nm emission filter. For ex vivo imaging, xenografts and organs were immediately dissected and analyzed after sacrifice.
# Fluorescence signals were quantified as the average radiant efficiency ([p/s/cm^2/sr]/[μW/cm^2]) using the Living Image software. The fluorescence intensity was measured by drawing a region of interest (ROI) around the area. The tumor-to-background ratio (TBR) was calculated as the average fluorescence intensity of the tumor divided by that of the skeletal muscle or intestine.
# [2] = tested on: OSE cells; experiment: Fluorescence microscopy cell binding of GnRHa-ICG / ICG; format: cell-based, human; details: 60 min, 37°C, confocal microscopy
# Experimental: (§1) The cells were placed in an 8-well chamber slide (Ibidi) and grown to ~60% confluence. A2780, CAOV-3, ES-2, and HeyA8 cells were incubated with 100 μmol/L GnRHa-FITC, and A2780, OSE, and H1299 cells were incubated with 20 μmol/L GnRHa-ICG or ICG (Sigma-Aldrich) for 60 min at 37°C. After incubation, the cells were washed with PBS, fixed in 4% paraformaldehyde, labeled with WGA Alexa Fluor 594 conjugate or WGA Alexa Fluor 488 conjugate (Invitrogen), and mounted with DAPI. These samples were analyzed using TCS SP5 confocal microscopy (Leica). For quantitative analysis, the mean fluorescence intensity was calculated using ImageJ software (version 1.50 g).
# [3] = tested on: A2780 cells; experiment: as above; format: cell-based, human; details: 60 min, 37°C, confocal microscopy
# Experimental: as §1
# [4] = tested on: A2780 cells; experiment: Cell viability assay (Cell Counting Kit-8); format: cell-based, human; details: 0, 1, 10, 100 μmol/L, 48 h exposure, CCK-8, 4 sub-wells
# Experimental: A2780 cells were seeded in 96-well plate and grown to ~40% confluence. Cells were incubated with GnRHa-ICG at different concentrations: 0, 1, 10, and 100 μmol/L. Each group had 4 sub-wells. After exposure for 48 h, cell viabilities were assessed by Cell Counting Kit-8 assay (Dojindo). The absorbance at 450 nm (reference wavelength: 630 nm) was measured with a microplate reader.
# [5] = tested on: A2780 and OSE cells (GnRHR-positive); experiment: Flow cytometry blocking experiment with unlabeled GnRHa peptide; format: cell-based, human; details: pretreated with 100 μmol/L GnRHa peptide 10 min, then 2 μmol/L GnRHa-ICG 30 min, 37°C, triplicate
# Experimental: A2780 and OSE cells were placed in 6-well plates, grown to ~70% confluence, and then incubated with GnRHa-FITC (20 μmol/L) or GnRHa-ICG/ICG (10 μmol/L) for 30 min at 37°C. For the blocking experiments, cells were pretreated with 100 μmol/L GnRHa peptide for 10 min and then incubated with 2 μmol/L GnRHa-ICG for 30 min at 37°C. Samples were measured on a CytoFLEX flow cytometer (Beckman Coulter) or a FACSAria flow cytometer (BD Biosciences). All samples were examined in triplicate. Data were analyzed using FlowJo software (version X 10.0.7).
# [6] = tested on: Balb/c nude mice; experiment: In vivo toxicity test; details: 1.5 mg/kg intraperitoneal, n = 4
# Experimental: The toxicity of GnRHa-ICG was determined in Balb/c nude mice (n = 4). Two groups received intraperitoneal injections of 1.5 mg/kg GnRHa-ICG and were followed for 2 and 96 h. The control group received vehicle alone. Blood draws were done to assess alanine transaminase (ALT), aspartate transaminase (AST), blood urea nitrogen (BUN), creatinine (CREA), white blood cells (WBC), and red blood cells (RBC). Tissues of the heart, lung, liver, spleen and kidney were harvested for HE staining.
# [7] = 2 h post administration, 0.72 μmol/kg intraperitoneal, IVIS Lumina K, ex 780/em 845 nm, mean ± SD, n = 3 per group
# [8] = 20 μmol/L, mean fluorescence intensity by ImageJ
Compound,"tumor-to-intestine ratio [1, 7]","tumor-to-muscle ratio [1, 7]","course of tumor fluorescence intensity ([1]; mouse, in vivo)","fluorescence in control (normal, non-tumor) mice ([1]; mouse, in vivo, ip)","fluorescence signal, times lower than with incubation of GnRHa-ICG ([2]; 20 μM each) [times]","fluorescence signal, times lower than with incubation of GnRHa-ICG ([3]; 20 μM each) [times]",cell viability after exposure (tumorigenic potential) [4],"course of tumor-to-background ratio (TBR) over time ([1]; between 2 and 48 h, intraperitoneal)","ex vivo imaging of the brain (binding to hypothalamic GnRHR) ([1]; mouse, in vivo)","fluorescence in benign retroperitoneal lymph nodes versus tumor ([1]; mouse, in vivo)","time at which fluorescence signal of A2780 xenografts peaked in intensity ([1]; mouse, in vivo, ip) [h]","time for which tumor fluorescence intensities were maintained ([1]; mouse, in vivo, ip)","time of highest fluorescence density in the liver ([1]; mouse, in vivo, ip) [h]",effect of competition with unlabeled GnRHa on fluorescence intensity [5],"fluorescence intensity, fold higher than in H1299 cells (GnRHR-negative) [2, 8] [fold]","fluorescence intensity, fold higher than in H1299 cells (GnRHR-negative) [3, 8] [fold]","ALT, AST, CREA, WBC and RBC, control versus test groups ([6]; 2 and 96 h)",BUN ([6]; 96 h after injection),"histological observation of main organs (heart, lung, liver, spleen, kidney; HE staining) [6]"
"CC1(C)C(/C=C/C=C/C=C/C=C2\N(CCCCS(=O)(=O)O)c3ccc4ccccc4c3C2(C)C)=[N+](CCCCS(=O)(=O)[O-])c2ccc3ccccc3c21 [ICG, Indocyanine green, reference compound]",0.57 ± 0.06,4.60 ± 0.50,decreased quickly within 48 h,high fluorescence signals,2.25,2.61,,,,,,,,,,,,,
D-2-Nal-D-4-Cl-Phe-D-3-Pal-Ser-Tyr-D-Cit-Leu-Arg-Pro-D-Ala-NH2 [GnRHa-ICG],,,,did not show fluorescence signals,,,does not increase cell viability,stable,did not show fluorescence signals,fewer fluorescence signals,2,up to 48 h,24,partial reduction in fluorescence intensity,1.34,1.56,no significant difference,slight decrease,did not present any obvious damage
